# Test results published in patent US12539292B2, “BRM targeting compounds and associated methods of use” (Arvinas Operations, Inc., priority 2018, dated 2026).
# Read-outs that look alike come from different tables or passages of the source.
# Molecular target: T1, BRM (Homo sapiens, UniProt P51531)
# T1 construct: In-Cell Western Screen of BRM Degradation in SW1573 Cells; endogenous in cells; host or cells: SW1573
# Assay: In-cell Western screen of BRM degradation in SW1573 cells (Dmax and DC50)
# Assay type: cell-based
# Method in brief: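 Near-infrared imaging on a LI-COR Odyssey (800 and 680 nm channels) quantifies BRM remaining in fixed SW1573 cells. Cells are dosed for 18-20 h at 0.1% final DMSO, and degradation is expressed as Dmax and DC50.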
# [1] = degradation of BRM, read-out: BRM DC50
# [2] = BRM degradation, SW1573 cells, read-out: DC50
# [3] = BRM degradation, SW1573 cells, tested at the top concentration of between 0.3 and 10 μM, read-out: Dmax (%) (% degraded)
# [4] = BRM degradation, SW1573 cells, when tested at the top concentration of between 0.3 and 10 μM, read-out: Dmax (%) (% degraded)
# T1 sequence (P51531 whole entry): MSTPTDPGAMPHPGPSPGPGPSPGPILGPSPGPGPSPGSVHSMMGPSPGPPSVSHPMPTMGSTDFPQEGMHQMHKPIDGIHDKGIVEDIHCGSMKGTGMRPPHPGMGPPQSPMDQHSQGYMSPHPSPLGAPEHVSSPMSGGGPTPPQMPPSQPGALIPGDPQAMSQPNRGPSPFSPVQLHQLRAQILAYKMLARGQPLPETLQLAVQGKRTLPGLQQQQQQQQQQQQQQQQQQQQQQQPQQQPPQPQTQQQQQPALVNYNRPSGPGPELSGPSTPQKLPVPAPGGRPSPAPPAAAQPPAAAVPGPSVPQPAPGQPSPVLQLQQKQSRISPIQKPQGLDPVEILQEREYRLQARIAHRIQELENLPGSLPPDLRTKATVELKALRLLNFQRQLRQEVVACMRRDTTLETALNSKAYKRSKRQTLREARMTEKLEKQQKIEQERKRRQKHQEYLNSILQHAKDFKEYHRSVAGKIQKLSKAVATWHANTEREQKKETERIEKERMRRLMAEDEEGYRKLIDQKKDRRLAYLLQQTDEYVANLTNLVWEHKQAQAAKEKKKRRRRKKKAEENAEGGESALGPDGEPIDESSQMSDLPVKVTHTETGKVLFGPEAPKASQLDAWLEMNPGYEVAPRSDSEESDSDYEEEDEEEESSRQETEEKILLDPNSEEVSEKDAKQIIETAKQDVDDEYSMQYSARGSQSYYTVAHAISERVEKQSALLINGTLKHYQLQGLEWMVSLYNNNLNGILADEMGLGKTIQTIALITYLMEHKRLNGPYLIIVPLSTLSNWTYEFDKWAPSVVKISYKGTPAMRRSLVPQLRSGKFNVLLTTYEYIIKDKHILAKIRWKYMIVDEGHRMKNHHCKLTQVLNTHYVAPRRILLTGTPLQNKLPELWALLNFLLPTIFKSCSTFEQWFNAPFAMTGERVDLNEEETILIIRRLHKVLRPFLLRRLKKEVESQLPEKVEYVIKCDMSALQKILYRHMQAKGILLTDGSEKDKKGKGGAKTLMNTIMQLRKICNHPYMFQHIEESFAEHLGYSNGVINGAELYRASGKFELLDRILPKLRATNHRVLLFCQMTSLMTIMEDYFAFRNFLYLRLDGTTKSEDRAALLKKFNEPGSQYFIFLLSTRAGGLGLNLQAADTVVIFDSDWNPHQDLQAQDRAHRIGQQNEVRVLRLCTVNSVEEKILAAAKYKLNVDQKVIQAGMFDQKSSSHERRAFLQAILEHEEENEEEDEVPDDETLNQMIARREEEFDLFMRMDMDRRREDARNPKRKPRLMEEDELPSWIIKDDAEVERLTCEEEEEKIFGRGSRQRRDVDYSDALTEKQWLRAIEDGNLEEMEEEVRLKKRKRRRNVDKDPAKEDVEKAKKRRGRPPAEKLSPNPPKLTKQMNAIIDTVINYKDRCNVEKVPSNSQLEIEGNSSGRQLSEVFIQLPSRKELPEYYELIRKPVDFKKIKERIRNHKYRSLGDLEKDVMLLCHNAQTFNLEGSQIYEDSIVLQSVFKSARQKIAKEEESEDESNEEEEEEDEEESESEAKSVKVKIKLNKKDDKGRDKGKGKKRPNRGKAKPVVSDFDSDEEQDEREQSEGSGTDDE
Compound,DC50 [2],Dmax [4],also measured
"CC(C)[C@@H](C(=O)N1C[C@H](O)C[C@H]1C(=O)NCc1ccc(C2(F)CC2)cc1)c1cc(OCCN2CCC(O[C@H]3C[C@H](Oc4cc(N5C6CCC5CN(c5cc(-c7ccccc7O)nnc5N)C6)ccn4)C3)CC2)no1 [compound 419, (2S,4R)-1-((2R)-2-(3-(2-(4-((1r,3R)-3-((4-(3-(3-amino-6-(2-hydroxyphenyl)pyridazin-4-yl)-3,8-diazabicyclo[3.2.1]octan-8-yl)pyridin-2-yl)oxy)cyclobutoxy)piperidin-1-yl)ethoxy)isoxazol-5-yl)-3-methylbutanoyl)-N-(4-(1-fluorocyclopropyl)benzyl)-4-hydroxypyrrolidine-2-carboxamide]",–,–,"Dmax (SW1573, % degraded, when tested at the top concentration of between 0.3 and 10 μM, read-out: BRM Dmax (%)): > 75%; DC50 [1]: 2.5 to 10 nM"
"Cc1ncsc1-c1ccc([C@H](C)NC(=O)[C@@H]2C[C@@H](O)CN2C(=O)[C@@H](c2cc(N3CCC(C#CCN4CCC(Oc5cc(N6C7CCC6CN(c6cc(-c8ccccc8O)nnc6N)C7)ccn5)CC4)CC3)no2)C(C)C)cc1 [compound 677, (2S,4R)-1-((2R)-2-(3-(4-(3-(4-((4-(3-(3-amino-6-(2-hydroxyphenyl)pyridazin-4-yl)-3,8-diazabicyclo[3.2.1]octan-8-yl)pyridin-2-yl)oxy)piperidin-1-yl)prop-1-yn-1-yl)piperidin-1-yl)isoxazol-5-yl)-3-methylbutanoyl)-4-hydroxy-N-((S)-1-(4-(4-methylthiazol-5-yl)phenyl)ethyl)pyrrolidine-2-carboxamide]",< 2.5 nM,–,"Dmax (BRM degradation, SW1573 cells, read-out: Dmax (% degraded)): > 75%"
"Cc1ncsc1-c1ccc([C@H](C)NC(=O)[C@@H]2C[C@@H](O)CN2C(=O)[C@@H](c2cc(OCC(=O)N3CCC(O[C@H]4C[C@H](Oc5cc(N6C7CCC6CN(c6cc(-c8ccccc8O)nnc6N)C7)ccn5)C4)CC3)no2)C(C)C)cn1 [compound 286, (2S,4R)-1-((2R)-2-(3-(2-(4-((1r,3R)-3-((4-(3-(3-amino-6-(2-hydroxyphenyl)pyridazin-4-yl)-3,8-diazabicyclo[3.2.1]octan-8-yl)pyridin-2-yl)oxy)cyclobutoxy)piperidin-1-yl)-2-oxoethoxy)isoxazol-5-yl)-3-methylbutanoyl)-4-hydroxy-N-((S)-1-(6-(4-methylthiazol-5-yl)pyridin-3-yl)ethyl)pyrrolidine-2-carboxamide]",2.5 to 10 nM,–,Dmax [3]: > 75%
"Cc1ncsc1-c1cnc([C@@H](C)NC(=O)[C@@H]2C[C@@H](O)CN2C(=O)[C@H](c2cc(OCCN3CCC(O[C@H]4C[C@H](Oc5cc(N6C7CCC6CN(c6cc(-c8ccccc8O)nnc6N)C7)ccn5)C4)CC3)no2)C(C)C)cn1 [compound 440, (2S,4R)-1-((2S)-2-(3-(2-(4-((1r,3S)-3-((4-(3-(3-amino-6-(2-hydroxyphenyl)pyridazin-4-yl)-3,8-diazabicyclo[3.2.1]octan-8-yl)pyridin-2-yl)oxy)cyclobutoxy)piperidin-1-yl)ethoxy)isoxazol-5-yl)-3-methylbutanoyl)-4-hydroxy-N-((R)-1-(5-(4-methylthiazol-5-yl)pyrazin-2-yl)ethyl)pyrrolidine-2-carboxamide]",–,–,DC50 [1]: > 30 nM
"Cc1nccn1-c1ccc([C@H](C)NC(=O)[C@@H]2C[C@@H](O)CN2C(=O)[C@@H](c2cc(OCCN3CCN(CCOc4cc(N5C6CCC5CN(c5cc(-c7ccccc7O)nnc5N)C6)ccn4)CC3)no2)C(C)C)cc1 [compound 76, (2S,4R)-1-((2R)-2-(3-(2-(4-(2-((4-(3-(3-amino-6-(2-hydroxyphenyl)pyridazin-4-yl)-3,8-diazabicyclo[3.2.1]octan-8-yl)pyridin-2-yl)oxy)ethyl)piperazin-1-yl)ethoxy)isoxazol-5-yl)-3-methylbutanoyl)-4-hydroxy-N-((S)-1-(4-(2-methyl-1H-imidazol-1-yl)phenyl)ethyl)pyrrolidine-2-carboxamide]",< 2.5 nM,> 75%,–
"Cc1ncsc1-c1ccc([C@H](C)NC(=O)[C@@H]2C[C@@H](O)CN2C(=O)[C@@H](c2cc(OCC[C@@H]3CCN(C[C@H]4C[C@H](Oc5cc(N6C7CCC6CN(c6cc(-c8ccccc8O)nnc6N)C7)ccn5)C4)[C@H](C)C3)no2)C(C)C)cc1 (racemic) [compound 580, (2S,4R)-1-((2R)-2-(3-(2-((2R,4R)-1-(((1r,3R)-3-((4-(3-(3-amino-6-(2-hydroxyphenyl)pyridazin-4-yl)-3,8-diazabicyclo[3.2.1]octan-8-yl)pyridin-2-yl)oxy)cyclobutyl)methyl)-2-methylpiperidin-4-yl)ethoxy)isoxazol-5-yl)-3-methylbutanoyl)-4-hydroxy-N-((S)-1-(4-(4-methylthiazol-5-yl)phenyl)ethyl)pyrrolidine-2-carboxamide]",–,–,"Dmax (BRM degradation, SW1573 cells, Table 2D, read-out: **Dmax (%) (% degraded)): > 75%; DC50 (BRM degradation, SW1573 cells, Table 2D, read-out: *DC50): < 2.5 nM"
"Cc1ncsc1-c1ccc(CNC(=O)[C@@H]2C[C@@H](O)CN2C(=O)[C@@H](NC(=O)Cc2ccc(N3CCN(CCOCCCc4cc(N5C6CCC5CN(c5cc(-c7ccccc7O)nnc5N)C6)ccn4)CC3)nc2)C(C)(C)C)cc1 [compound 31, (2S,4R)-1-((2S)-2-(2-(6-(4-(2-(3-(4-(3-(3-amino-6-(2-hydroxyphenyl)pyridazin-4-yl)-3,8-diazabicyclo[3.2.1]octan-8-yl)pyridin-2-yl)propoxy)ethyl)piperazin-1-yl)pyridin-3-yl)acetamido)-3,3-dimethylbutanoyl)-4-hydroxy-N-(4-(4-methylthiazol-5-yl)benzyl)pyrrolidine-2-carboxamide]",10 to 30 nM,> 75%,–
"Cc1ncsc1-c1ccc([C@H](C)NC(=O)[C@@H]2C[C@@H](O)CN2C(=O)[C@@H](c2onc(OCCN3CCC(O[C@H]4C[C@H](Oc5cc(N6C7CCC6CN(c6cc(-c8ccccc8O)nnc6N)C7)ccn5)C4)CC3)c2F)C(C)C)cc1 [compound 209, (2S,4R)-1-((2R)-2-(3-(2-(4-((1r,3R)-3-((4-(3-(3-amino-6-(2-hydroxyphenyl)pyridazin-4-yl)-3,8-diazabicyclo[3.2.1]octan-8-yl)pyridin-2-yl)oxy)cyclobutoxy)piperidin-1-yl)ethoxy)-4-fluoroisoxazol-5-yl)-3-methylbutanoyl)-4-hydroxy-N-((S)-1-(4-(4-methylthiazol-5-yl)phenyl)ethyl)pyrrolidine-2-carboxamide]",< 2.5 nM,–,Dmax [3]: > 75%
"CC(C)[C@H](C(=O)N1C[C@H](O)C[C@H]1C(=O)N[C@@H](C)c1ccc(-c2nccn2C)cc1)c1cc(OCCN2CCN(CCOc3cc(N4C5CCC4CN(c4cc(-c6ccccc6O)nnc4N)C5)ccn3)CC2)no1 [compound 159, (2S,4R)-1-((2S)-2-(3-(2-(4-(2-((4-(3-(3-amino-6-(2-hydroxyphenyl)pyridazin-4-yl)-3,8-diazabicyclo[3.2.1]octan-8-yl)pyridin-2-yl)oxy)ethyl)piperazin-1-yl)ethoxy)isoxazol-5-yl)-3-methylbutanoyl)-4-hydroxy-N-((S)-1-(4-(1-methyl-1H-imidazol-2-yl)phenyl)ethyl)pyrrolidine-2-carboxamide]",> 30 nM,–,Dmax [3]: < 50%
"Cc1ncsc1-c1ccc([C@H](C)NC(=O)[C@@H]2C[C@@H](O)CN2C(=O)[C@@H](c2cc(OCCN3CCN(CCOc4cc(N5C6CCC5CN(c5cc(-c7ccccc7O)nnc5N)C6)ccn4)CC3)no2)C(C)C)cn1 [compound 116, (2S,4R)-1-((2R)-2-(3-(2-(4-(2-((4-(3-(3-amino-6-(2-hydroxyphenyl)pyridazin-4-yl)-3,8-diazabicyclo[3.2.1]octan-8-yl)pyridin-2-yl)oxy)ethyl)piperazin-1-yl)ethoxy)isoxazol-5-yl)-3-methylbutanoyl)-4-hydroxy-N-((S)-1-(6-(4-methylthiazol-5-yl)pyridin-3-yl)ethyl)pyrrolidine-2-carboxamide]",< 2.5 nM,> 75%,–
"Cc1ncsc1-c1ccc(CNC(=O)[C@@H]2C[C@@H](O)CN2C(=O)[C@@H](NC(=O)COCCOCCOCCn2cc(-c3cc(-c4ccccc4O)nnc3N)cn2)C(C)(C)C)cc1 [compound 1, (2S,4R)-1-((S)-14-(4-(3-amino-6-(2-hydroxyphenyl)pyridazin-4-yl)-1H-pyrazol-1-yl)-2-(tert-butyl)-4-oxo-6,9,12-trioxa-3-azatetradecanoyl)-4-hydroxy-N-(4-(4-methylthiazol-5-yl)benzyl)pyrrolidine-2-carboxamide]",> 30 nM,> 75%,–
"Cc1cnn(C)c1-c1ccc([C@H](C)NC(=O)[C@@H]2C[C@@H](O)CN2C(=O)C(c2cc(OCCN3CCN(CCOc4cc(N5C6CCC5CN(c5cc(-c7ccccc7O)nnc5N)C6)ccn4)CC3)no2)C(C)C)cc1 (stereo in doubt) [compound 194, (2S,4R)-1-((2R)-2-(3-(2-(4-(2-((4-(3-(3-amino-6-(2-hydroxyphenyl)pyridazin-4-yl)-3,8-diazabicyclo[3.2.1]octan-8-yl)pyridin-2-yl)oxy)ethyl)piperazin-1-yl)ethoxy)isoxazol-5-yl)-3-methylbutanoyl)-N-((S)-1-(4-(1,4-dimethyl-1H-pyrazol-5-yl)phenyl)ethyl)-4-hydroxypyrrolidine-2-carboxamide]",< 2.5 nM,–,"Dmax (%) (% degraded) (BRM degradation, SW1573 cells, tested at the top concentration of between 0.3 and 10 μM): A (A > 75)"
"Cc1ncsc1-c1ccc([C@H](C)NC(=O)[C@@H]2C[C@@H](O)CN2C(=O)[C@H](c2cc(OCC[C@H]3CC[C@H](O[C@H]4C[C@H](Oc5cc(N6C7CCC6CN(c6cc(-c8ccccc8O)nnc6N)C7)ccn5)C4)CC3)no2)C(C)C)cn1 [compound 485, (2S,4R)-1-((2S)-2-(3-(2-((1R,4S)-4-((1r,3S)-3-((4-(3-(3-amino-6-(2-hydroxyphenyl)pyridazin-4-yl)-3,8-diazabicyclo[3.2.1]octan-8-yl)pyridin-2-yl)oxy)cyclobutoxy)cyclohexyl)ethoxy)isoxazol-5-yl)-3-methylbutanoyl)-4-hydroxy-N-((S)-1-(6-(4-methylthiazol-5-yl)pyridin-3-yl)ethyl)pyrrolidine-2-carboxamide]",–,–,"DC50 (target protein degradation, read-out: BRM DC50): > 30 nM"
